# Reference: patent publication US5032597A, “Method of using phenylquinolinecarboxylic acids and derivatives for lymthoid leukemia treatment in a mammal” (priority 1987, dated 1991)
# Read-outs that look alike come from different tables or passages of the source.
# Experiments:
# [1] = test system: human colon carcinoma cells HCT-15; experiment: Human colon tumor test in vitro, HCT-15 cell growth inhibition; type: cell-based; details: for IC50: Homo sapiens, HCT-15, 72 h, read-out: in vitro HCT-15 ID50 (50 percent inhibition of number of doublings); for in vitro HCT-15 ID50 (50 percent inhibition of number of doublings): 4320 min
# Experimental: The compound of this invention were also tested for their ability to inhibit the growth of human colon carcinoma cells in vitro.
# The human colon carcinoma cells, designated HCT-15, were derived from a specimen of an adenocarcinoma of human colon removed during surgery. The cells were grown in Roswell Park Medical Institute (RPMI) Medium 1640 supplemented with 10% heat inactivated fetal calf serum, penicillin (100 units/ml), streptomycin (100 μg/ml), gentamicin (20 μg/ml), fungizone (25 μg/ml), 0.075 percent sodium bicarbonate, […] 4-(2-hydroxyethyl)-1-piperazineethanesulfonic acid and […] N-tris(hydroxymethyl)methylglycine. […] On day 1 cells from sample dishes were harvested using trypsin (0.25%) treatment and counted with a hemocytometer to determine the number of cells per dish at the time of the addition of the compounds. Compounds of this invention were added in varying concentrations to other cultures. On day 4, treated and control cultures were harvested by trypsin treatment and the number of cells was determined. The number of doublings for the control cells was determined from the cell numbers on days 1 and 4. The ID50, the concentration of compound required to inhibit by 50 percent the number of doublings, was then calculated from the dose-response curve in which cell numbers were plotted on log-log paper against compound concentrations in micrograms per ml.
# L1210 leukemia = experiment: Lymphoid Leukemia L1210, survival of tumored mice; type: in vivo, CD2F1 mice; details: Mus musculus, L1210, ip, 720 h, read-out: L1210 Leukemia % T/C (median survival time); for response vs control in vivo at 400 mg/kg: 400 mg/kg i.p.; for response vs control in vivo at 200 mg/kg: 200 mg/kg i.p.; for response vs control in vivo at 25 mg/kg: 25 mg/kg i.p.; for response vs control in vivo at 50 mg/kg: 50 mg/kg i.p.
# Experimental: The efficacy of the compounds of this invention against the transplanted mouse tumors was evaluated in test systems currently in use at the National Cancer Institute for the detection and assessment of anticancer activity. […] J. Cancer, 17, 129-142, (1981); Venditti, J. M., Seminars in Oncology, 8 (4) (1981); Goldin, A. and J. M. Venditti, in Recent Results in Cancer Research, 70, S. K. Carter and Y. Sakurai, Eds., Springer-Verlag, Berlin/Heidelberg, 1980].
# The animals used in this test were CD2 F1 mice, all males weighing a minimum of 18 g and all within a 4 g weight range at the start of the test. The test group consisted of six mice. The tumor was implanted in each of the test mice by the intraperitoneal injection of 0.1 ml of diluted ascitic fluid containing 10^5 cells drawn from a mouse with L1210 leukemia. The test compounds were suspended in hydroxypropylcellulose or saline with Tween® 80 surfactant or dissolved in saline and injected intraperitoneally, at various doses, once daily for nine consecutive days starting on day one relative to the day of tumor inoculation (day 0). The control mice received injections of saline or hydroxypropylcellulose vehicle only. The mice were weighed and survivors were recorded on a regular basis for 30 days. The median survival time and the ratio of the median survival time for the treated (T) and control (C) mice was calculated. […] Drug effectiveness was assessed on the basis of the survival time. Results were expressed as a percentage of the control survival time (Median Survival Time: T/C ×100%). The criterion for effectiveness was determined by: T/C×100≥125 percent.
# [2] = HCT-15 cells, compound day 1 to day 4
structure (smiles),measurement,setting,value
"COc1cccc2c1C(=O)c1c(O)c3c(c(O)c1C2=O)C[C@@](O)(C(=O)CO)C[C@@H]3O[C@H]1C[C@H](N)[C@H](O)[C@H](C)O1 [Adriamycin, reference compound]",IC50,[1],0.01 µg/mL
same,response vs control in vivo at 2 mg/kg,L1210 leukemia,183%
Cc1c(-c2ccc(C3CCCCC3)cc2)nc2ccc(Cl)cc2c1C(=O)O [Example 3],in vitro HCT-15 ID50 (50 percent inhibition of number of doublings),[1]; [2],0.50 µg/mL
same,response vs control in vivo at 400 mg/kg,L1210 leukemia,207%
O=C(O)c1cc(-c2ccc(C3CCCCC3)cc2)nc2ccc(Cl)cc12 [Example 4],IC50,[1]; [2],0.48 µg/mL
same,response vs control in vivo at 200 mg/kg,L1210 leukemia,128%
O=C(O)c1cc(-c2ccc(C3CCCCC3)cc2)nc2ccc(F)cc12 [Example 5],IC50,[1]; [2],0.02 µg/mL
same,response vs control in vivo at 400 mg/kg,L1210 leukemia,141%
Cc1ccc2nc(-c3ccc(C4CCCCC4)cc3)c(C)c(C(=O)O)c2c1 [Example 6],in vitro HCT-15 ID50 (50 percent inhibition of number of doublings),[1]; [2],0.24 µg/mL
same,response vs control in vivo at 400 mg/kg,L1210 leukemia,162%
CCCCCCCCCCc1ccc(-c2nc3ccc(F)cc3c(C(=O)O)c2C)cc1 [Example 7],in vitro HCT-15 ID50 (50 percent inhibition of number of doublings),[1]; [2],2.30 µg/mL
same,response vs control in vivo at 200 mg/kg,L1210 leukemia,136%
CCCCCCc1ccc(-c2nc3ccc(F)cc3c(C(=O)O)c2C)cc1 [Example 8],IC50,[1]; [2],0.4 µg/mL
same,response vs control in vivo at 400 mg/kg,L1210 leukemia,147%
CCC(C)c1ccc(-c2nc3ccc(F)cc3c(C(=O)O)c2C)cc1 (centres unmarked) [Example 9],in vitro HCT-15 ID50 (50 percent inhibition of number of doublings),[1]; [2],0.07 µg/mL
same,response vs control in vivo at 200 mg/kg,L1210 leukemia,127%
CCc1c(-c2ccc(C3CCCCC3)cc2)nc2ccc(F)cc2c1C(=O)O [Example 10],in vitro HCT-15 ID50 (50 percent inhibition of number of doublings),[1]; [2],0.03 µg/mL
same,response vs control in vivo at 200 mg/kg,L1210 leukemia,163%
Cc1c(-c2ccc(Oc3ccccc3)cc2)nc2ccc(F)cc2c1C(=O)O [Example 11],in vitro HCT-15 ID50 (50 percent inhibition of number of doublings),[1]; [2],0.19 µg/mL
same,response vs control in vivo at 25 mg/kg,L1210 leukemia,176%
Cc1c(-c2ccc(-c3ccc(Br)cc3)cc2)nc2ccc(F)cc2c1C(=O)O [Example 12],IC50,[1]; [2],1 µg/mL
same,response vs control in vivo at 50 mg/kg,L1210 leukemia,261%
Cc1c(-c2ccc(SC(C)C)cc2)nc2ccc(F)cc2c1C(=O)O [Example 13],IC50,[1]; [2],0.24 µg/mL
same,response vs control in vivo at 400 mg/kg,L1210 leukemia,129%
Cc1ccc2nc(-c3ccc(-c4ccccc4)cc3)c(C)c(C(=O)O)c2c1 [Example 14],IC50,[1]; [2],0.38 µg/mL
same,response vs control in vivo at 50 mg/kg,L1210 leukemia,195%
CCc1c(-c2ccc(C3CCCCC3)cc2)nc2ccc(C)cc2c1C(=O)O [Example 15],IC50,[1]; [2],0.28 µg/mL
same,response vs control in vivo at 200 mg/kg,L1210 leukemia,158%
Cc1c(-c2ccc(OCc3ccccc3)cc2)nc2ccc(F)cc2c1C(=O)O [Example 16],IC50,[1]; [2],1 µg/mL
same,response vs control in vivo at 400 mg/kg,L1210 leukemia,190%
CCc1c(-c2ccc(C(C)CC)cc2)nc2ccc(F)cc2c1C(=O)O (centres unmarked) [Example 17],in vitro HCT-15 ID50 (50 percent inhibition of number of doublings),[1]; [2],0.65 µg/mL
same,response vs control in vivo at 400 mg/kg,L1210 leukemia,136%
CCc1c(-c2ccc(-c3ccccc3)cc2)nc2ccc(F)cc2c1C(=O)O [Example 18],in vitro HCT-15 ID50 (50 percent inhibition of number of doublings),[1]; [2],< 0.50 µg/mL
same,response vs control in vivo at 100 mg/kg,L1210 leukemia; 100 mg/kg i.p.,185%
Cc1c(-c2ccc(-c3ccccc3)cc2)nc2ccc(Cl)cc2c1C(=O)O [Example 19],IC50,[1]; [2],< 0.5 µg/mL
same,response vs control in vivo at 25 mg/kg,L1210 leukemia,234%
Cc1c(-c2ccc(Oc3ccccc3)cc2)nc2ccc(Cl)cc2c1C(=O)O [Example 20],IC50,[1]; [2],< 0.5 µg/mL
same,response vs control in vivo at 200 mg/kg,L1210 leukemia,211%
COc1ccc(-c2ccc(-c3nc4ccc(Cl)cc4c(C(=O)O)c3C)cc2)cc1 [Example 24],in vitro HCT-15 ID50 (50 percent inhibition of number of doublings),[1]; [2],0.28 µg/mL
same,response vs control in vivo at 400 mg/kg,L1210 leukemia,154%
Cc1c(-c2ccc(SCc3ccccc3)cc2)nc2ccc(F)cc2c1C(=O)O [Example 26],IC50,[1]; [2],< 0.5 µg/mL
same,response vs control in vivo at 300 mg/kg,L1210 leukemia; 300 mg/kg i.p.,136%
"Cc1c(-c2ccc(-c3ccccc3F)cc2)nc2ccc(F)cc2c1C(=O)O [Example 28, 2-(2'-Fluoro-1,1'-biphenyl-4-yl)-6-fluoro-3-methyl4-quinolinecarboxylic acid]",IC50,[1]; [2],< 0.5 µg/mL
same,response vs control in vivo at 18 mg/kg,L1210 leukemia; 18 mg/kg i.p.,174%
